Molecular target: CA II (Homo sapiens, UniProt P00918)
Test: esterase assay, p-nitrophenyl acetate hydrolysis
Format: biochemical

IC50, > 2000 nM:
O=C1NS(=O)(=O)c2cc(-n3cc(CCO[C@@H]4O[C@H](CO)[C@H](O)[C@H](O)[C@H]4O)nn3)ccc21 [1c, saccharin-glycoconjugate 1c]
O=C1NS(=O)(=O)c2cc(-n3cc(CO[C@@H]4O[C@H](CO)[C@H](O)[C@H](O)[C@H]4O)nn3)ccc21 [1b, saccharin-glycoconjugate 1b]
O=C1NS(=O)(=O)c2cc(-n3cc(CO[C@@H]4O[C@H](CO)[C@@H](O)[C@H](O)[C@H]4O)nn3)ccc21 [1a, saccharin-glycoconjugate 1a]
